Several values for one entry are separate records, joined by “and”; a condition that tells them apart may be missing. Equal values may be shown once.
Test system: Grapevine (Malbec variety)
Assay: Leaf sap Brix by refractometer, Malbec field trial (Example 1)
Format: in vivo, Vitis vinifera
Set-up: % BRIX, Plant #1 / % BRIX, Plant #2 / % BRIX, Plant #3: reference not given here
Details: for AVG Brix, Plant #1 / AVG Brix, Plant #2 / AVG Brix, Plant #3: average of 25 leaves; for Brix, individual leaves, Plant #1 / Brix, individual leaves, Plant #2 / Brix, individual leaves, Plant #3: leaf sap; for Brix, individual leaves, Plant #1: MDJ treated Plant #1, leaf no. 1-25; for Brix, individual leaves, Plant #2: MDJ treated Plant #2, leaf no. 1-25; for Brix, individual leaves, Plant #3: MDJ treated Plant #3, leaf no. 1-25
Description: An eliciting composition and methods of use to alter metabolite production were tested on 6 acres of a Malbec variety planted in 1999 in Napa Valley, California. Plants were spaced 5′×10′ (900 vines per acre) and grouped into randomized blocks of 900 vines per group, with six replicates covering three acres for the treatment group, and six replicates covering three acres for the control group. The treatment group received two applications of 32 oz of MDJ applied at a rate of 100 gallons per acre (2.5 mM), once prior to veraison on Aug. 9, 2021 and again when 5-10% of berries were starting to blush (veraison) using a ground spray rig (backpack sprayer). From within each replicate, three plants were selected at random, and 25 leaves from each plant were randomly selected for analysis. The internal sap of the leaves was tested using a refractometer on the days shown below in Table 4 and FIG. 1. Data from each replicate was averaged (25 leaves from each plant, 3 plants).

[1] = Replicate 2 sampled on Sep. 22, 2021, MDJ treated Plant #2
[2] = Replicate 2 sampled on Sep. 22, 2021, MDJ treated Plant #3
[3] = Replicate 3 sampled on Sep. 30, 2021, MDJ treated Plant #1
[4] = Replicate 3 sampled on Sep. 30, 2021, MDJ treated Plant #2
[5] = Replicate 3 sampled on Sep. 30, 2021, MDJ treated Plant #3
[6] = Replicate 4, Oct. 5, 2021, MDJ treated Plant #1
[7] = Replicate 4, Oct. 5, 2021, MDJ treated Plant #2
[8] = Replicate 4, Oct. 5, 2021, MDJ treated Plant #3
[9] = Replicate 5, Oct. 10, 2021, MDJ treated Plant #1
[10] = Replicate 5, Oct. 10, 2021, MDJ treated Plant #2
[11] = Replicate 5, Oct. 10, 2021, MDJ treated Plant #3
[12] = Replicate 6, Oct. 30, 2021, MDJ treated Plant #1
[13] = Replicate 6, Oct. 30, 2021, MDJ treated Plant #2
[14] = Replicate 6, Oct. 30, 2021, MDJ treated Plant #3
[15] = Replicate 4 sampled on Oct. 5, 2021
[16] = Replicate 5 sampled on Oct. 10, 2021
[17] = Replicate 6 sampled on Oct. 30, 2021

## CCCCCC1C(=O)CCC1CC(=O)OC (centres unmarked) [MDJ, methyl dihydrojasmonate]
Replicate 2 sampled on Sep. 22, 2021, MDJ treated Plant #1
  AVG Brix of 25 leaves: 24.9
[1]
  % BRIX: 101.0%
  AVG Brix of 25 leaves: 25.3
[2]
  % BRIX: 91.8%
  AVG Brix of 25 leaves: 23.0
[3]
  % BRIX: 111.9%
  AVG Brix of 25 leaves: 28.0
[4]
  % BRIX: 117.9%
  AVG Brix of 25 leaves: 29.5
[5]
  % BRIX: 117.9%
  AVG Brix of 25 leaves: 29.5
[6]
  % BRIX, Plant #1: 119.5%
  AVG Brix, Plant #1: 29.9
[7]
  % BRIX, Plant #2: 119.2%
  AVG Brix, Plant #2: 29.8
[8]
  % BRIX, Plant #3: 120.8%
  AVG Brix, Plant #3: 30.2
[9]
  % BRIX, Plant #1: 111.4%
  AVG Brix, Plant #1: 27.9
[10]
  % BRIX, Plant #2: 111.4%
  AVG Brix, Plant #2: 27.8
[11]
  % BRIX, Plant #3: 107.3%
  AVG Brix, Plant #3: 26.8
[12]
  % BRIX, Plant #1: 99.2%
  AVG Brix, Plant #1: 24.8
[13]
  % BRIX, Plant #2: 110.1%
  AVG Brix, Plant #2: 27.5
[14]
  % BRIX, Plant #3: 103.2%
  AVG Brix, Plant #3: 25.8
Replicate 4 sampled on Oct. 5, 2021, two applications of 32 oz MDJ at 100 gal/acre (2.5 mM)
  Brix, individual leaves, Plant #1: 30.6 and 29.8 (2×) and 29.0 and 29.5 (6×) and 32.3 and 28.7 and 28.9 (3×) and 29.7 (2×) and 28.8 and 30.0 and 30.4 and 33.3 and 29.9 (2×) and 31.8 and 29.6
[15]
  Brix, individual leaves, Plant #2: 29.3 (2×) and 28.0 and 26.9 and 28.5 and 29.9 (2×) and 29.8 (3×) and 30.1 and 28.9 (2×) and 29.4 and 28.3 and 33.3 and 33.0 and 32.9 and 32.5 and 28.8 and 30.4 and 29.5 (2×) and 29.6 and 28.7
  Brix, individual leaves, Plant #3: 31.9 and 29.8 (2×) and 29.2 and 29.3 and 29.9 (4×) and 28.5 and 30.4 and 29.5 (2×) and 31.0 and 32.5 and 32.9 and 29.0 and 28.7 and 28.8 and 30.1 and 30.3 and 29.6 and 33.0 and 32.8 and 28.9
[16]
  Brix, individual leaves, Plant #1: 28.7 and 26.1 and 26.2 and 27.2 and 27.7 and 27.6 (2×) and 26.4 (2×) and 28.2 and 28.8 (3×) and 25.8 and 28.5 and 26.0 and 26.9 and 29.5 (2×) and 27.4 and 32.0 and 23.8 and 29.9 and 30.5 and 28.0
  Brix, individual leaves, Plant #2: 28.5 (2×) and 27.5 (2×) and 29.1 and 26.8 and 26.4 and 27.8 and 29.9 and 28.7 (2×) and 29.4 and 28.3 and 29.5 and 28.6 and 25.0 and 27.6 and 25.9 and 29.8 and 28.4 and 28.0 and 26.0 and 26.1 and 27.2 and 27.0
  Brix, individual leaves, Plant #3: 26.8 (3×) and 24.5 and 26.3 (2×) and 25.5 (3×) and 25.3 and 28.5 (4×) and 26.7 and 25.8 and 27.0 and 28.7 and 26.9 and 29.8 and 27.5 (2×) and 26.0 and 26.5 and 24.8
[17]
  Brix, individual leaves, Plant #1: 23.4 and 23.8 (2×) and 24.0 (4×) and 26.0 (2×) and 25.0 (3×) and 25.1 and 26.6 (2×) and 25.6 and 24.5 (2×) and 24.8 (2×) and 24.7 and 23.9 and 22.8 and 25.5 and 26.5
  Brix, individual leaves, Plant #2: 28.7 (2×) and 24.5 and 24.1 and 26.0 (2×) and 28.0 (3×) and 27.1 and 26.4 and 29.1 and 25.5 and 28.5 (2×) and 26.9 and 29.8 (2×) and 29.9 and 27.3 (2×) and 24.9 and 26.6 and 29.5 and 29.0
  Brix, individual leaves, Plant #3: 25.0 (2×) and 23.1 and 22.9 (2×) and 28.1 and 25.8 and 26.9 and 25.5 and 25.6 (2×) and 26.2 and 23.9 (2×) and 28.8 and 26.3 and 27.2 and 27.3 and 26.1 and 24.6 and 25.7 and 29.9 and 28.4 and 25.4 and 24.9
